Laboratory results reported in patent US20260216280A1, “COMPOSITION FOR PREVENTING AND TREATING ISCHEMIC CEREBROVASCULAR DISEASE COMPRISING GINTONIN” (Dongguk University Industry-Academic Cooperation Foundation, priority 2022, published 2026).

Test system: HBMEC (Human Brain Microvascular Endothelial Cell)
Test: Nitric oxide production in HBMEC, gintonin pretreatment before NOS inhibitor
Format: cell-based
Conditions: 100 uM synthase inhibitor, 1 h, vs DMSO only
Procedure: First of all, HBMEC (Human Brain Microvascular Endothelial Cell) or imHBMEC (immortalized Human Brain Microvascular Endothelial Cell) were cultured in an appropriate culture medium under air conditions of 37° C., 5% carbon dioxide and 95% relative humidity. When the cells reached 80 to 90% confluency (average ~2 days), 10 ug/mL of gintonin was first pretreated and incubated for 1 hour, and then, a nitric oxide synthase (NOS) inhibitor was treated and incubated for another hour, then, the effect of changes in nitric oxide (NO) production was investigated. Afterwards, the concentration of nitric oxide synthase inhibitor was treated at 100 and 300 uM.

Question: Which “reduction of nitric oxide (relative production)” value does the source give for `COC(=O)[C@@H](N)CCCNC(=N)N[N+](=O)[O-].Cl` [synthase inhibitor] here?
Answer: about 20%
